pIC50: −log10 of the molar value.
How the values were obtained:
[1] = Solubility of pharmaceutically acceptable salts in water; type: physicochemical; conditions: distilled deionized water, sonicated 20 min, under 25° C., HPLC
Procedure: The formulator can determine the solubility of the pharmaceutically acceptable salts of the disclosed inhibitors by any method desirable. The following is a non-limiting example of a procedure for evaluating the solubility of a salt of a disclosed inhibitor. A suspension of tert-butyl-{[1-(4-chlorobenzyl)-3-hydroxy-2-oxo-1,2-dihydropyridin-4-yl]methyl}-piperazine-1-carboxylate methanesulfonate (26.6 mg) in distilled deionized water (3.0 mL) is sonicated for 20 min with water bath temperature under 25° C. The suspension is filtered to remove any insoluble salt. The clear filtrate solution (200 μL) is diluted with distilled deionized water (800 μL) and subjected to HPLC analysis. The following are results for the pharmaceutically acceptable salts outlined in Table VII above.

HIFPH2 (EGLN1) = HIFPH2 (EGLN1) (Homo sapiens (Human), UniProt Q9GZT9); experiment: EGLN-1 Activity Assay (MALDI-TOF MS); type: biochemical; conditions: recombinant human EGLN-1-179/426, HIF-1α peptide 556-574
Procedure: The enzyme, quantity predetermined to hydroxylate 20% of substrate in 20 minutes, is added to start the reaction. Where inhibitors are used, compounds are prepared in dimethyl sulfoxide at 10-fold final assay concentration. After 20 minutes at room temperature, the reaction is stopped by transferring 10 μL of reaction mixture to 50 μL of a mass spectrometry matrix solution (α-cyano-4-hydroxycinnamic acid, 5 mg/mL in 50% acetonitrile/0.1% TFA, 5 mM NH4PO4). Two microliters of the mixture is spotted onto a MALDI-TOF MS target plate for analysis with an Applied Biosystems (Foster City, Calif.) 4700 Proteomics Analyzer MALDI-TOF MS equipped with a Nd:YAG laser (355 nm, 3 ns pulse width, 200 Hz repetition rate). Hydroxylated peptide product is identified from substrate by the gain of 16 Da. Data defined as percent conversion of substrate to product is analyzed in GraphPad Prism 4 to calculate IC50 values.

[2] = tested on: phosphoglycerate kinase (PGK) expression; experiment: PGK expression in murine embryonic fibroblasts; type: cell-based; conditions: 1 μM, 10 μM, vs wild type control (FIG. 12)
Procedure: FIG. 11 depicts the up regulation of phosphoglycerate kinase (PGK) expression in wild type murine embryonic fibroblasts as a result of treatment with a compound disclosed in Table VIII at dosages of 1 μM (E), 10 μM (F), and 50 μM (G) vs. wild type control (H) and the lack of up regulation of PGK expression in HIF-1 knock out cells as a result of treatment with a compound disclosed in Table VIII at dosages of 1 μM (A), 10 μM (B), and 50 μM (C) and HIF-1 knock out control (D). Both cell types were treated for 7 hours.

Sequence of HIFPH2 (EGLN1) (Q9GZT9 179-426): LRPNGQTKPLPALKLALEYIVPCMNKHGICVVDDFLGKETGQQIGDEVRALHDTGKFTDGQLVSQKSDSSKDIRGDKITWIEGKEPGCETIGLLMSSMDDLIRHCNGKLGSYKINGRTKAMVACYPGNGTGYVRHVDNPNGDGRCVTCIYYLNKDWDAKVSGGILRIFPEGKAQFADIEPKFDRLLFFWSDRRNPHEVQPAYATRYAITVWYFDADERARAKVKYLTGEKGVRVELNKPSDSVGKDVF

Row | SMILES | Solubility [1] | pIC50 (HIFPH2 (EGLN1)) | further results
1 | CC(C)(C)OC(=O)N1CCN(Cc2ccn(Cc3ccc(Cl)cc3)c(=O)c2O)CC1 [Compound A41] | ~1 µg/mL | – | –
2 | O=c1c(O)c(CN2CCN(Cc3ccccc3)CC2)ccn1Cc1ccccc1 [Compound B9, 1-benzyl-3-hydroxy-4-[(4-benzylpiperazin-1-yl)methyl]pyridin-2(1H)-one] | – | 4.77 | –
3 | O=c1c(O)c(CNCc2ccccc2)ccn1Cc1ccc(Cl)cc1 [Compound C1, 1-(4-chlorobenzyl)-3-hydroxy-4-[(4-benzylamino)methyl]pyridin-2(1H)-one] | – | 4.92 | –
4 | O=c1c(O)cccn1Cc1cccc(Cl)c1 [Compound F2, 1-(3-chlorobenzyl)-3-hydroxypyridin-2(1H)-one] | – | – | PGK expression in wild type murine embryonic fibroblasts [2]: up regulation
5 | CC(C)(C)OC(=O)N1CCN(Cc2ccn(Cc3ccc(Cl)cc3)c(=O)c2O)CC1.CS(=O)(=O)O [methanesulfonate, tert-butyl-{[1-(4-chlorobenzyl)-3-hydroxy-2-oxo-1,2-dihydropyridin-4-yl]methyl}-piperazine-1-carboxylate methanesulfonate] | 16600 µg/mL | – | –
